In ChEMBL document CHEMBL1649509, “Lon protease is essential for paradoxical survival of Escherichia coli exposed to high concentrations of quinolone” (Antimicrob Agents Chemother, 2009) one finds Activity data, which are given here for one compound.

Format in all cases: functional, organism-based
Test [1] relates to Escherichia coli. As to the kind of experiment: Antibacterial activity against Escherichia coli K-12 harboring lon lexA3 mutant gene.
The subject of test [2] is Escherichia coli. As to the kind of experiment: Antibacterial activity against Escherichia coli K-12 by viscometric assay.
Test [3] concerns Escherichia coli. As to the kind of experiment: Antibacterial activity against lon-deficient Escherichia coli KD2372.
The test system of test [4] is Escherichia coli. As to the kind of experiment: Antibacterial activity against lon-deficient Escherichia coli KD2372 by viscometric assay.
The subject of test [5] is Escherichia coli. The test is described as follows: Antibacterial activity against Escherichia coli K-12 harboring lon sulA double mutant gene.
For test [6], the system named is Escherichia coli. The test is described as follows: Antibacterial activity against Escherichia coli K-12 harboring gyrA67/gyrB225 mutant gene.

The source made the active and inactive calls. No cut-off for these calls is given here.

As for `CCn1cc(C(=O)O)c(=O)c2ccc(C)nc21`, the result in the test on Escherichia coli [1], with Escherichia coli [3], in the test with Escherichia coli [4], in the test on Escherichia coli [5] and in the test with Escherichia coli [6] was Active. Further, the outcome with Escherichia coli [2] was inactive.
